# In paper PMC4474874, “Effect of JAK Inhibitors on Release of CXCL9, CXCL10 and CXCL11 from Human Airway Epithelial Cells” (PLoS ONE, 2015):
# Where two headings read alike, the source gives them in different places.
# How the values were obtained:
# BEAS-2B cells = test: Release of CXCL9, CXCL10 and CXCL11 from BEAS-2B cells (ELISA), inhibitors added concomitantly with stimulus; format: cell-based, human; settings: Homo sapiens, 20 h
# Experimental: (§1) Cell-free supernatants were removed 20h post-stimulation and assayed for CXCL9, CXCL10 and CXCL11 using Duoset ELISA kits (R & D Systems Europe, Abingdon, UK) according to the manufacturer’s instructions. The detection limits of these assays are 62pg/ml, 31pg/ml, and 7.8 pg/ml respectively.
# It was possible that concomitant addition of stimulus and JAK inhibitors may elicit a different inhibitory profile, therefore to address this, experiments were performed. […] Experiments were then performed to determine the effects of both JAK inhibitors in human primary airway epithelial cells in order to determine whether their ability to suppress CXCR3 chemokine release from BEAS-2B cells was reflective of their efficacy in primary cells.
# Media was harvested and the concentrations of CXCL9 (panels a and d), CXCL10 (panels b and e) and CXCL11 (panels c and f) were measured by ELISA. Data are presented as mean±SEM, n = 7–8. (EPS) Click here for additional data file. […]
# After this time, media was harvested and the concentrations of CXCR3 chemokines measured by ELISA. Data are presented as mean±SEM, n=4
# [1] = system: human primary airway epithelial cells; test: Release of CXCL9, CXCL10 and CXCL11 from human primary airway epithelial cells (ELISA); format: cell-based; settings: for IC50 / EC50: Homo sapiens, Epithelial cell, pre-treated 1h; for IC50: pooled primary cells
# Experimental: BEAS-2B cells (catalogue number CRL-9609) were purchased directly from American Type Culture Collection (Rockville, MD). Keratinocyte serum-free medium (K-SFM), bovine pituitary extract (BPE), and recombinant human epidermal growth factor (EGF) were purchased from Invitrogen (Paisley, UK). BEAS-2B cells were cultured in K-SFM containing 50 μg/ml BPE and 5 ng/ml EGF at 37°C in a humidified atmosphere comprising 5% (v/v) CO2 in air. Cells were cultured as monolayers in growth factor-free media for 24 h prior to stimulation. Human primary airway epithelial cells were cultured as monolayers from bronchial brushings from both male and female subjects (Table 1) and cultured in LHC-9 media (Invitrogen, Paisley, UK) in collagen (1% w/v) coated flasks. Samples were obtained from non-smokers, smokers and patients with COPD. […] The subjects were matched for age and smokers and COPD patients for smoking history (Table 1). All subjects gave informed written consent and the study was approved by the NRES London-Chelsea Research Ethics committee, study number 09/H0801/85.
# as §1
# Data are presented as mean ± SEM of ‘n’ independent determinations. Concentration-response curves were analysed by least-squares, non-linear iterative regression with the ‘Graphpad Prism’ curve fitting program (GraphPad software, San Diego, USA) and IC50 values were subsequently interpolated from curves of best-fit. Statistical differences were determined using the Kruskal–Wallis test followed by Dunn's multiple comparison test or a Wilcoxon signed rank test as appropriate. Values of P<0.05 were considered significant.
# Media was harvested and the concentrations of CXCL9 (panels a and d), CXCL10 (panels b and e) and CXCL11 (panels c and f) were measured by ELISA. Data are presented as mean ± SEM, n = 10–13.
# [2] = system: human primary airway epithelial cells; test: IL-6 release from IFNγ + TNFα-stimulated human primary airway epithelial cells; format: cell-based
# Experimental: In order to determine whether any of the inhibitory effects of the JAK inhibitors could be attributed to cell death, MTT assays were performed at the end of every experiment. […] In order to address this issue, the levels of IL-6 released from cells stimulated with IFNγ + TNFα were measured.
# STAT-3 = STAT-3 DNA binding in BEAS-2B cells (TransAM); format: cell-based, human; settings: IFNγ + TNFα, inhibitor 10^-6M
# Experimental: STAT phosphorylation, nuclear translocation and DNA binding was determined using TransAM assays (Actif Motif, Rixensart, Belgium). Cells were treated with JAK inhibitors for 30 min prior to stimulation for 1h. Nuclear extracts were prepared using the Actif Motif assay reagents. Briefly, the nuclear extracts (10 μg) were incubated in DNA coated plates for 1h. After washing, antibodies supplied with the TransAM kit that were specific for the active forms of STAT1, STAT3, STAT5A and STAT5B were added to the wells and incubated for a further hour. The plates were washed and a secondary HRP-labelled anti-goat Ig antibody was added and the plates incubated for an hour. After washing, the assay was developed using the TMB substrate provided and the reaction stopped using 2N sulphuric acid. The plates were read at 450nm with a reference filter of 610nm. Data were then normalised to non-stimulated cells and calculated as fold change from baseline.
# After 1 h, nuclear extracts of the cells were prepared and TransAM assays for STAT-1 (panel a) and STAT-3 (panel b) were performed. Data are presented as fold change from baseline ± SEM; n = 4.
compound,measurement,setting,value
"CCc1cc(O)ccc1-c1ccc2c(-c3nc4ccccc4[nH]3)n[nH]c2c1 [PF1367550, 4-(3-(1H-benzo[d]imidazol-2-yl)-1H-indazol-6-yl)-3-ethylphenol]",IC50,"BEAS-2B cells; inhibitor concomitant with IFNγ (10 ng/ml) 20h, read-out: IC50, release of CXCL9",10.3 ± 2.1 nM
same,IC50,"BEAS-2B cells; inhibitor concomitant with IFNγ (10 ng/ml) 20h, read-out: IC50, release of CXCL10",16.6 ± 2.7 nM
same,IC50,"BEAS-2B cells; inhibitor concomitant with IFNγ (10 ng/ml) 20h, read-out: IC50, release of CXCL11",16 ± 4.1 nM
same,IC50,"BEAS-2B cells; inhibitor concomitant with IFNγ+TNFα (10 ng/ml) 20h, read-out: IC50, release of CXCL9",31.6 ± 13.4 nM
same,IC50,"BEAS-2B cells; inhibitor concomitant with IFNγ+TNFα (10 ng/ml) 20h, read-out: IC50, release of CXCL10",146 ± 32.6 nM
same,IC50,"BEAS-2B cells; inhibitor concomitant with IFNγ+TNFα (10 ng/ml) 20h, read-out: IC50, release of CXCL11",32 ± 8.7 nM
same,IC50,"[1]; IFNγ (10ng/ml) 20h, read-out: IC50, release of CXCL9",8.4 ± 1.3 nM
same,IC50,"[1]; IFNγ (10ng/ml) 20h, read-out: IC50, release of CXCL10",10.4 ± 1.7 nM
same,IC50,"[1]; IFNγ (10ng/ml) 20h, read-out: IC50, release of CXCL11",7 ± 0.9 nM
same,IC50,"[1]; IFNγ+TNFα (10ng/ml) 20h, read-out: IC50, release of CXCL9",17.6 ± 3 nM
same,IC50,"[1]; IFNγ+TNFα (10ng/ml) 20h, read-out: IC50, release of CXCL10",24.3 ± 2.4 nM
same,IC50,"[1]; IFNγ+TNFα (10ng/ml) 20h, read-out: IC50, release of CXCL11",14.5 ± 2.4 nM
same,EC50,"[1]; primary cells from COPD patients, IFNγ (10 ng/ml) 20h, read-out: EC50, release of CXCL9",7.4 ± 1.3 nM
same,EC50,"[1]; primary cells from COPD patients, IFNγ (10 ng/ml) 20h, read-out: EC50, release of CXCL10",7.1 ± 1.3 nM
same,EC50,"[1]; primary cells from COPD patients, IFNγ (10 ng/ml) 20h, read-out: EC50, release of CXCL11",6.3 ± 1.4 nM
same,EC50,"[1]; primary cells from COPD patients, IFNγ +TNFα (10 ng/ml) 20h, read-out: EC50, release of CXCL9",20.8 ± 4.8 nM
same,EC50,"[1]; primary cells from COPD patients, IFNγ +TNFα (10 ng/ml) 20h, read-out: EC50, release of CXCL10",29.1 ± 3.5 nM
same,EC50,"[1]; primary cells from COPD patients, IFNγ +TNFα (10 ng/ml) 20h, read-out: EC50, release of CXCL11",16.7 ± 4.1 nM
same,EC50,"[1]; primary cells from non-smokers, IFNγ (10 ng/ml) 20h, read-out: EC50, release of CXCL9",9.73 ± 3.5 nM
same,EC50,"[1]; primary cells from non-smokers, IFNγ (10 ng/ml) 20h, read-out: EC50, release of CXCL10",12.8 ± 5.6 nM
same,EC50,"[1]; primary cells from non-smokers, IFNγ (10 ng/ml) 20h, read-out: EC50, release of CXCL11",8.5 ± 0.7 nM
same,EC50,"[1]; primary cells from non-smokers, IFNγ +TNFα (10 ng/ml) 20h, read-out: EC50, release of CXCL9",14.1 ± 7.1 nM
same,EC50,"[1]; primary cells from non-smokers, IFNγ +TNFα (10 ng/ml) 20h, read-out: EC50, release of CXCL10",20.3 ± 5.1 nM
same,EC50,"[1]; primary cells from non-smokers, IFNγ +TNFα (10 ng/ml) 20h, read-out: EC50, release of CXCL11",13.7 ± 6.7 nM
same,EC50,"[1]; primary cells from smokers, IFNγ (10 ng/ml) 20h, read-out: EC50, release of CXCL9",9 ± 3 nM
same,EC50,"[1]; primary cells from smokers, IFNγ (10 ng/ml) 20h, read-out: EC50, release of CXCL10",12.3 ± 0.36 nM
same,EC50,"[1]; primary cells from smokers, IFNγ (10 ng/ml) 20h, read-out: EC50, release of CXCL11",6.8 ± 1.9 nM
same,EC50,"[1]; primary cells from smokers, IFNγ +TNFα (10 ng/ml) 20h, read-out: EC50, release of CXCL9",15.3 ± 4.8 nM
same,EC50,"[1]; primary cells from smokers, IFNγ +TNFα (10 ng/ml) 20h, read-out: EC50, release of CXCL10",20.2 ± 3.6 nM
same,EC50,"[1]; primary cells from smokers, IFNγ +TNFα (10 ng/ml) 20h, read-out: EC50, release of CXCL11",11.8 ± 2.9 nM
same,"fold more potent than PF956980, CXCR3 chemokine release",[1]; pooled human primary airway epithelial cells,~ 80 fold
same,"IC50 for IL-6 release, fold greater than for inhibition of CXCR3 chemokine release",[2],~ 50 fold
same,IC50,"[2]; Homo sapiens, Epithelial cell, IFNγ + TNFα, n = 7",800 ± 200 nM
same,effect on STAT-3 binding to DNA,STAT-3,suppressed
